One series concerns murine lymphocytes. The series can be described thus: In vitro functional assay based on viability of murine lymphocytes. The class given is cell-based. On the procedure: FIG. 1C. The effect of 5FU or vehicle control in the functional assay presented as viable cells/ml. The incubation time with 5FU or vehicle control (72 hours) is indicated on the x-axis.
The target in a further series is T1, topoisomerase I (Homo sapiens, UniProt P11387).
T1 sequence (P11387 1-765): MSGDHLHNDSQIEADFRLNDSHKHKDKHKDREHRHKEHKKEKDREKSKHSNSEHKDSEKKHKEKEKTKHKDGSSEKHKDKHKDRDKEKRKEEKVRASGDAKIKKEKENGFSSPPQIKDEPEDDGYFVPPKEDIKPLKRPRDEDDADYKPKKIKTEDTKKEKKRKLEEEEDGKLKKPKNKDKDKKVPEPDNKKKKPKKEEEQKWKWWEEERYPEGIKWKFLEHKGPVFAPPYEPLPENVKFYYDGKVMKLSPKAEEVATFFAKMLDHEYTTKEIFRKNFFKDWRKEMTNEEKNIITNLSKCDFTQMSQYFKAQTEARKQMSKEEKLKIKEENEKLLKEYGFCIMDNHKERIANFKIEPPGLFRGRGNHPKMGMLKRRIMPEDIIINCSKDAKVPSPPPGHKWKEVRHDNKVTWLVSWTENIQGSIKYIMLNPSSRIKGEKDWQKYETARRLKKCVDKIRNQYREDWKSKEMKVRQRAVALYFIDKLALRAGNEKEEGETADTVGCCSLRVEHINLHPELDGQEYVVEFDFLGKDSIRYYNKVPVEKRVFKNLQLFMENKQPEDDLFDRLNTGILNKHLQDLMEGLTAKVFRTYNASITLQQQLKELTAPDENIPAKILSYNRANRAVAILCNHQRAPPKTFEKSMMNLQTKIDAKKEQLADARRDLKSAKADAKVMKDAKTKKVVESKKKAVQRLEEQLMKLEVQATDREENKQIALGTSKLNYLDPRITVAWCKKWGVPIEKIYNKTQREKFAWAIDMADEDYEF
The following applies: cited from earlier work.

A short description of series [1]: Phase I clinical trial of CT-011, pharmacokinetics. Particulars: Table 2 patients.
The conditions of series [2]: human, in vivo.
Series [3] concerns advanced hematological malignancies.
The mark [4] stands for this setting: murine lymphocytes, agent combined with hBAT-1.
[5] abbreviates: AML patient receiving CT-011 at 0.2 and 3 mg/kg.
Setting [6] is: Pt. 003/016, AML, 0.2/3.0 mg/kg.

Values joined by “and” are separate entries in the source; they are usually repeats but may differ in a detail not shown here. Equal values may be shown once. Read-outs that look alike come from different tables or passages of the source. A value given as a limit tells only on which side of the number the result lay.

On to `CC(=O)O[C@H]1C(=O)[C@@]2(C)[C@H]([C@H](OC(=O)c3ccccc3)[C@]3(O)C[C@H](OC(=O)[C@H](O)[C@@H](NC(=O)c4ccccc4)c4ccccc4)C(C)=C1C3(C)C)[C@]1(OC(C)=O)CO[C@@H]1C[C@@H]2O` [paclitaxel], for which the “effect of chemotherapeutic agent on the activity of hBAT-1” value (“effect of chemotherapeutic agent” below) with murine lymphocytes (setting [4]) is “do not adversely affect the activity of hBAT-1”.
Turning to `O=c1[nH]cc(F)c(=O)[nH]1` [5FU, 5-fluorouracil], the “effect of chemotherapeutic agent” value in the series on murine lymphocytes (setting [4]) is listed as “do not adversely affect the activity of hBAT-1”. The “cell survival with chemotherapeutic agent on its own” value in the series with murine lymphocytes (without hBAT-1, FIG. 1C) was “did not enhance cell survival”.
As to `CCc1c2c(nc3ccc(O)cc13)-c1cc3c(c(=O)n1C2)COC(=O)[C@]3(O)CC` [SN-38, 7-ethyl-10-hydroxy-camptothecin], the “cell survival when given in combination with hBAT-1” value in the series with murine lymphocytes is on record as “do not enhance cell survival”. Further, the “potency relative to parent compound irinotecan” value at topoisomerase I is given as “One thousand-fold more potent”.
In the case of `O=P1(N(CCCl)CCCl)NCCCO1` (stereo not drawn) [cyclophosphamide], the “cell survival when given in combination with hBAT-1” value in the series with murine lymphocytes (murine lymphocyte culture) is on record as “do not enhance cell survival”.
In the case of `O=C1[O][Pt]2([NH][C@@H]3CCCC[C@H]3[NH]2)[O]C1=O` [oxaliplatin], the “effect of chemotherapeutic agent” value in the series on murine lymphocytes is recorded as “do not adversely affect the activity of hBAT-1”.
In the case of `N.N.[Cl][Pt][Cl]` [cisplatin, cis-diamminedichloridoplatinum II], the “effect of chemotherapeutic agent” value in the series on murine lymphocytes (setting [4]) is “do not adversely affect the activity of hBAT-1”.
Turning to “hBAT-1: humanized monoclonal antibody with CDRs of murine mBAT-1 and human framework regions”, the “median t1/2 of the 6 patients with apparent clinical response versus the rest” value in series [1] was “somewhat higher than that of the rest of the patients”. This compound gave a highest half life in series [2] of 17.1 days. Moreover, in series [3] (11 of 18), the “patients reporting adverse events (AE)” value was 61%. The “changes in disease parameters” value in series [3] (21 days, 2 CLL, 4 NHL and one Multiple Myeloma patient) is recorded as “no changes in disease parameters”. In addition, the “clinical response” value in series [3] (setting [5]) was “minimal response”; in series [3] (patient #015, stage III follicular lymphoma, 3.0 mg/kg), “complete remission”. In addition, the “time to progression after receiving CT-011” value in series [3] (setting [5]) is on record as 61 weeks. Moreover, the “change in average percentage of blasts in the peripheral blood” value in series [3] (AML patients, 21 days, excluding one patient) was “no change”. Moreover, the “duration of stable disease” value in series [3] (CLL patient, 0.6 mg/kg) is 36 weeks; in series [3] (CLL patient, 1.5 mg/kg), “over 78 weeks”; in series [3] (HD patient, 0.6 mg/kg) it was 35 weeks; in series [3] (MM patient, 6.0 mg/kg) it was “over 60 weeks”. Also, the “Overall Survival (Weeks)” value in series [3] (setting [6]) is given as 61 Weeks; in series [3] (Pt. 005, CLL, 0.6 mg/kg), 36 Weeks; in series [3] (Pt. 006, HD, 0.6 mg/kg), 35 Weeks; in series [3] (Pt. 008, CLL, 1.5 mg/kg), greater than 78 Weeks; in series [3] (Pt. 015, NHL, 3.0 mg/kg) it was greater than 68 Weeks; in series [3] (Pt. 017, MM, 6.0 mg/kg), greater than 60 Weeks. For the same compound, in series [3] (setting [6]), the platelet transfusion-independent period entry is recorded as “for 9 months”. Besides, in series [3] (Pt. 003/016, AML, on first dose (0.2 mg/kg)), the “reduction in peripheral blasts” value is reported as “(50% to 5%) on first dose”. Moreover, the duration stable entry was “Stable for >17 months” in series [3] (Pt. 008, CLL, 1.5 mg/kg) and “Stable for >13 months” in series [3] (Pt. 017, MM, 6.0 mg/kg). Also, the “tumor masses by CT scan” value in series [3] (Pt. 015, follicular lymphoma, 10 months post CT-011 treatment) is on record as “complete elimination of tumor masses”. The “cumulative survival of all patients” value in series [3] (at 21 days, n=18) amounted to 76%. The “most frequent AE” value in series [3] (concluded not associated with CT-011 treatment) is “diarrhea”. Also, the “patients with apparent response to treatment” value in series [3] (follow-up) is reported as 6 patients. In series [3] (follow-up beyond 21 days, all patients, listed as CT-011), the mean survival time is 25±27 weeks and 25 weeks. Moreover, the “difference in mean survival time across the dose groups” value in series [3] (human, in vivo) was “No difference”. Moreover, in series [3] (number, all resulted in death, in AML patients), the serious adverse events entry is “Four”. This compound also had a sustained remission in series [3] (patient #015, following CT-011 treatment) of 68 weeks. The “dose-limiting toxicity (DLT)” value in series [3] (single dose 0.2 to 6 mg/kg) is “No DLT was reached”. The “maximum tolerated dose (MTD)” value in series [3] (single dose 0.2 to 6 mg/kg) is “No single dose MTD was found”. Moreover, the safety and tolerability result in series [3] (single dose 0.2 to 6 mg/kg) was “safe and well tolerated with no treatment-related toxicities”.
Take `Nc1ccn([C@@H]2O[C@H](CO)[C@@H](O)[C@@H]2O)c(=O)n1` [cytarabine]: the “effect of chemotherapeutic agent” value in the series with murine lymphocytes (setting [4]) is recorded as “do not adversely affect the activity of hBAT-1”.

The values above are taken from US9309308B2, “Monoclonal antibodies for tumor treatment” (CURETECH LTD., priority 2008, dated 2016).
